From US20200323999A1 (The Board of Trustees of the Leland Stanford Junior …, priority 2019, published 2020)

What was measured:
[1] = RF-acoustic signal characterization in tube phantom (433 MHz UHF-RF pulse); conditions: salts 10 wt %, NaOH 4 wt %; 1 mm tubes
Description: To determine the optimal composition of salt solutions for UHF-RF-acoustic contrast agents, five different salts were chosen, NaCl(aq), KI(aq), KCl(aq), MgCl2(aq), and CaCl2(aq) based on their ionic conductivity, solubility in water, and biocompatibility. NaOH(aq) was selected as a control because of its high ionic conductivity but low biocompatibility. […] Their UHF-RF-acoustic signals were measured using a prototype RF-acoustic tomography system with a nanosecond UHF-RF pulse at 433 MHz since this frequency is within the medical device radio-communications service band (MedRadio) (FIGS. 1B-1D). […] The generated RF-acoustic signals were collected by an ultrasound-linear-array transducer with a central frequency at 3.5 MHz that provides 1.2 mm imaging resolution on the transverse plane (FIGS. 1E-1F).
For comparison, a tube was included with only physiological saline (0.9 wt % of NaCl) to mimic RF-acoustic background of tissue. […]
A prototype RF-acoustic tomography imaging system (with main parts from Endra) was used to measure the RF-acoustic signal from the phantom and the mice. […] At each angle, 4095 pulses were recorded and averaged to improve the signal-to-noise ratio. […] The average energy density of a pulse at the target site was measured to be 1 mJ/cm^2, which is within the safety limit of tissue exposure. […] Acoustic signals were recorded by an ultrasound imaging system. […]

[2] = unit not given; cited from earlier work

## [Cl-].[Na+] [NaCl, sodium chloride]
[1]
  RF-acoustic signal of electrolyte solutions (comparison): weaker signals than KCl

## [Na+].[OH-] [NaOH(aq), sodium hydroxide, reference compound]
[1]
  RF-acoustic signal of electrolyte solutions (comparison): strongest RF-acoustic signal

## FC1(F)C(F)(F)C(F)(F)C2(F)C(F)(F)C(F)(F)C(F)(F)C(F)(F)C2(F)C1(F)F (centres unmarked) [Perfluorodecalin, perfluorodecalin]
[2]
  Water solubility: 9.90 × 10^−9

## FC(F)(F)C(F)(F)C(F)(F)C(F)(F)C(F)(F)C(F)(F)F [Perfluorohexane, perfluorohexane]
[2]
  Water solubility: 2.70 × 10^−7

## FC(F)(F)C(F)(F)C(F)(F)C(F)(F)C(F)(F)F [Perfluoropentane, perfluoropentane]
[2]
  Water solubility: 4.00 × 10^−6
